In publication PMC8348310, “Antioxidants Isolated from Elaeagnus umbellata (Thunb.) Protect against Bacterial Infections and Diabetes in Streptozotocin-Induced Diabetic Rat Model” (Molecules, 2021):
Converted amounts (≈) assume the structure as drawn. “And” between values parts separate entries of the source, which are not always exact repeats. Equal entries are not always repeated.

Key:
[1] = test system: Staphylococcus aureus; assay: Agar well diffusion, zone of inhibition; type: cell-based; settings: 37 °C, 24 h; for Zone of Inhibition: 100 µg/mL
Protocol: The antibacterial activity of the isolated compounds (morin, phloroglucinol, and 1-hexyl benzene) was determined using agar well diffusion method. Muller–Hinton agar media was prepared and autoclaved at 15 lbs pressure for 20 min and cooled to 45 °C. […] The entire wells were filled with 100 µL of the isolated compounds (stock solution: 1 mg/mL) using microtiter-pipette and allowed to diffuse at room temperature for 2 h. The plates were incubated at 37 °C for 24 h. In the center hole, Imipenem was added which served as positive control. Simultaneous, addition of an equal concentration of DMSO solvent instead of isolated compounds was used as blank. After incubation, the zones of inhibition were measured in millimeters (mm) and mean values were calculated. The experiments were performed in triplicates.

[2] = ABTS free radical scavenging assay; type: biochemical; settings: for ABTS IC50: linear regression of % scavenging vs concentration
Protocol: ABTS (2,2′-azinobis-3-ethylbenzothiazoline-6-sulfonic acid) free radicals inhibition potential were determined according to the reported assay. ABTS solution was prepared in methanol (100 mL). In total, 300 µL of compound (morin, phloroglucinol, and 1-hexyl benzene) was mixed thoroughly with 3.0 mL ABTS solution and incubated for six minutes. Finally, the absorbance was measured through UV spectrophotometer using ascorbic acid as positive control. Percent ABTS free radicals scavenging potential was calculated using the equation No. 1.
All the in vitro and in vivo experiments were analyzed in three replicates and determined as mean ± SEM. Student’s t-test and one way ANOVA followed by Dunnett’s post hoc multiple comparison test was used. p ≤ 0.05 were considered as significant. Linear regression analysis was used to calculate the IC50 value for % DPPH, ABTS, α-amylase, and α-glucosidase inhibition against the different concentrations of the test samples by means of Excel program 2007.

[3] = test system: Proteus mirabilis; assay: Broth dilution MIC determination; type: cell-based; settings: 37 °C, 24 h, read-out: Minimum Inhibitory Concentrations
Protocol: (§1) Antibacterial potential of isolated compound was investigated against both Gram-positive and Gram-negative bacterial strains; Escherichia coli, Bacillus cereus, Salmonella typhi, Klebsiella pneumonia, Pseudomonas aeruginosa and Proteus mirabilis. Bacterial strains were provided by the Department of Pharmacy, University of Malakand, Khyber Pakhtunkhwa, Pakistan, and were kept at 4 °C in agar slants in freeze-dried condition until further use.
(§2) Both Gram-positive and Gram-negative bacterial strains Escherichia coli, Bacillus cereus, Salmonella typhi, Klebsiella pneumonia, Pseudomonas aeruginosa and Proteus mirabilis organism viable count per mL in the stock suspension was determined using surface viable counting technique. About 10^8–10^9 colony-forming units (CFU) per mL were used as inoculum in subsequent experiments. A fresh stock suspension was used each time.
(§3) Minimum inhibitory concentrations (MICs) of morin, phloroglucinol, and 1-hexyl benzene were determined using broth dilution method, following the Clinical and Laboratory Standards Institute (CLSI) guidelines. Stock solutions of morin, phloroglucinol, and 1-hexyl benzene were prepared in dimethylsulphoxide (DMSO). The serial dilutions from the stock solution were made ranging from 500 to 3.90 μg/mL using Mueller–Hinton broth. Sterile centrifuge tubes were arranged in sets of rows for each bacterial inoculum to cover the different concentration of isolated compounds in triplicate. The standard bacterial stock suspension 10^8–10^9 CFU/mL, in 100 μL were inoculated into each tube. A sterility control tube and a growth control tube were also incubated (for each strain). The tubes were incubated at 37 °C for 24 h. After incubation, 40 μL of a 0.4 mg/mL solution of para iodonitrotetrazolium (INT) chloride was added to each tube as an indicator of microbial growth. […] The evaluation for the inhibition of microbial growth was based on the color change of INT to pink, while no color change indicates the absence of growth. The MIC is the lowest concentration of the compounds at which there is no visible growth in the tubes. The concentration that inhibited bacterial growth completely (the first clear tube) was taken as the MIC value. Experiments were performed in triplicate and mean values are presented.
(§4) In order to, determine the sensitivity of the bacterial strains, positive control experiments were conducted, taking ampicillin at a starting concentration of 0.10 mg/mL in sterile water while the final concentrations for these experiments ranged from 25.00 to 0.19 μg/mL. A negative control experiment was conducted using only DMSO.

[4] = test system: Pseudomonas aeruginosa; assay: Broth dilution MIC determination; type: cell-based; settings: 37 °C, 24 h, read-out: Minimum Inhibitory Concentrations
Protocol: as §1, §2, §3, §4

[5] = test system: Escherichia coli; assay: Broth dilution MIC determination; type: cell-based; settings: 37 °C, 24 h, read-out: Minimum Inhibitory Concentrations
Protocol: as §1, §2, §3, §4

[6] = test system: Bacillus cereus; assay: Broth dilution MIC determination; type: cell-based; settings: 37 °C, 24 h, read-out: Minimum Inhibitory Concentrations
Protocol: as §1, §2, §3, §4

[7] = test system: Klebsiella pneumonia; assay: Broth dilution MIC determination; type: cell-based; settings: Klebsiella pneumoniae, 37 °C, 24 h, read-out: Minimum Inhibitory Concentrations
Protocol: as §1, §2, §3, §4

Compound: CCCCCCc1ccccc1 [1-Hexyl benzene, 1-hexylbenzene]
- Zone of Inhibition [1]: 3.4 ± 0.4 mm
- zone of inhibition at 100 µg/mL [1]: 3.4 ± 0.4 mm
- % ABTS Scavenging Mean ± SEM ([2]; 31.05 µg/mL): 19 ± 1.4 %
- % ABTS Scavenging Mean ± SEM ([2]; 62.5 µg/mL): 26 ± 0.5 %
- % ABTS Scavenging Mean ± SEM ([2]; 125 µg/mL): 31 ± 1.0 %
- % ABTS Scavenging Mean ± SEM ([2]; 250 µg/mL): 39 ± 1.5 %
- % ABTS Scavenging Mean ± SEM ([2]; 500 µg/mL): 47 ± 2.2 %
- % ABTS Scavenging Mean ± SEM ([2]; 1000 µg/mL): 55 ± 1.1 %
- ABTS IC50 [2]: 129 µg/mL
- MIC [3]: 250 ± 1.2 µg/mL (≈ 1540 µM)
- MIC [4]: 200 ± 1.5 µg/mL (≈ 1230 µM)
- MIC [5]: 95 ± 2.1 µg/mL (≈ 585 µM)
- MIC [6]: 135 ± 1.5 µg/mL (≈ 832 µM)
- MIC [7]: 178 ± 2.2 µg/mL (≈ 1100 µM)

Compound: O=c1c(O)c(-c2ccc(O)cc2O)oc2cc(O)cc(O)c12 [Morin, 2-(2,4-Dihydroxyphenyl)-3,5,7-trihydroxychromen-4-one]
- Zone of Inhibition [1]: 13 ± 0.4 mm
- zone of inhibition at 100 µg/mL [1]: 13 ± 0.4 mm
- % ABTS Scavenging Mean ± SEM ([2]; 31.05 µg/mL): 45 ± 0.5 %
- % ABTS Scavenging Mean ± SEM ([2]; 62.5 µg/mL): 57 ± 1.4 %
- % ABTS Scavenging Mean ± SEM ([2]; 125 µg/mL): 64 ± 1.2 %
- % ABTS Scavenging Mean ± SEM ([2]; 250 µg/mL): 75 ± 0.5 ^ns %
- % ABTS Scavenging Mean ± SEM ([2]; 500 µg/mL): 80 ± 1.0 ^ns %
- % ABTS Scavenging Mean ± SEM ([2]; 1000 µg/mL): 88 ± 1.0% and 88 ± 1.0 ^ns %
- ABTS IC50 [2]: 40 µg/mL
- MIC [3]: 55 ± 1.4 µg/mL (≈ 182 µM)
- MIC [4]: 44 ± 1.5 µg/mL (≈ 146 µM)
- MIC [5]: 25 ± 1.1 µg/mL (≈ 82.7 µM)
- MIC [6]: 21 ± 1.2 µg/mL (≈ 69.5 µM)
- MIC [7]: 30 ± 1.4 µg/mL (≈ 99.3 µM)

Compound: Oc1cc(O)cc(O)c1 [Phloroglucinol, Benzene-1,3,5-triol]
- Zone of Inhibition [1]: 9.5 ± 2.1 mm
- zone of inhibition at 100 µg/mL [1]: 9.5 ± 2.1 mm
- % ABTS Scavenging Mean ± SEM ([2]; 31.05 µg/mL): 25 ± 1.0 %
- % ABTS Scavenging Mean ± SEM ([2]; 62.5 µg/mL): 33 ± 0.5 %
- % ABTS Scavenging Mean ± SEM ([2]; 125 µg/mL): 39 ± 1.2 %
- % ABTS Scavenging Mean ± SEM ([2]; 250 µg/mL): 45 ± 1.0 %
- % ABTS Scavenging Mean ± SEM ([2]; 500 µg/mL): 51 ± 0.5 %
- % ABTS Scavenging Mean ± SEM ([2]; 1000 µg/mL): 64 ± 1.1 %
- ABTS IC50 [2]: 112 µg/mL
- MIC [3]: 205 ± 1.5 µg/mL (≈ 1630 µM)
- MIC [4]: 180 ± 2.1 µg/mL (≈ 1430 µM)
- MIC [5]: 80 ± 1.4 µg/mL (≈ 634 µM)
- MIC [6]: 105 ± 1.6 µg/mL (≈ 833 µM)
- MIC [7]: 166 ± 1.5 µg/mL (≈ 1320 µM)
